Results reported in ChEMBL document CHEMBL5528022, “Discovery of a brain-permeable bromodomain and extra terminal domain (BET) inhibitor with selectivity for BD1 for the treatment of multiple sclerosis” (Eur J Med Chem, 2024).
Activity calls are given as the source filed them. The calls are words filed in the database; no cut-off is given here.

Experiments:
[1] = target: T1, Bromodomain-containing protein 4 (Homo sapiens, UniProt O60885); test: Binding affinity to BRD4 BD1 (unknown origin) expressed in Escherichia coli BL21 (DE3) at 1:1 protein:compound ratio by MST assay
[2] = target: T1, Bromodomain-containing protein 4; test: Binding affinity to BRD4 BD2 (unknown origin) expressed in Escherichia coli BL21 (DE3) at 1:1 protein:compound ratio by MST assay
[3] = target: T1, Bromodomain-containing protein 4; test: Binding affinity to BRD4 BD1 (unknown origin) expressed in Escherichia coli BL21 (DE3) by ITC assay
[4] = target: T1, Bromodomain-containing protein 4; test: Binding affinity to BRD4 BD2 (unknown origin) expressed in Escherichia coli BL21 (DE3) by ITC assay
[5] = target: T1, Bromodomain-containing protein 4; test: Binding affinity to BRD4 BD1 (unknown origin) assessed as change in entropy by ITC method
[6] = target: T1, Bromodomain-containing protein 4; test: Binding affinity to BRD4 BD1 (unknown origin) assessed as change in gibbs free energy by ITC method
[7] = target: T1, Bromodomain-containing protein 4; test: Inhibition of BRD4 BD1 (unknown origin) incubated for 15 mins by HTRF method
[8] = target: T1, Bromodomain-containing protein 4; test: Inhibition of BRD4 BD2 (unknown origin) incubated for 15 mins by HTRF method
[9] = target: T2, Bromodomain-containing protein 3 (Homo sapiens, UniProt Q15059); test: Inhibition of BRD3 BD1 (unknown origin) incubated for 15 mins by HTRF method
[10] = target: T2, Bromodomain-containing protein 3; test: Inhibition of BRD3 BD2 (unknown origin) incubated for 15 mins by HTRF method
[11] = target: T3, Bromodomain-containing protein 2 (Homo sapiens, UniProt P25440); test: Inhibition of BRD2 BD1 (unknown origin) incubated for 15 mins by HTRF method
[12] = target: T3, Bromodomain-containing protein 2; test: Inhibition of BRD2 BD2 (unknown origin) incubated for 15 mins by HTRF method
[13] = target: Bromodomain testis-specific protein (Homo sapiens, UniProt Q58F21); test: Inhibition of BRDT BD1 (unknown origin) incubated for 15 mins by HTRF method
Microglia = test: Antiinflammatory activity against LPS induced neonatal rat cerebral cortex microglia by immunofluorescence assay; assay type: functional, cell-based
[14] = Stability in rat liver microsomes assessed as half life; assay type: ADME, Microsome
[15] = Stability in rat liver microsomes assessed as intrinsic clearance; assay type: ADME, Microsome; settings: read-out: CLH
[16] = Lipophilicity, logD of compound at pH 7.4 by LC-MS/MS based shake bottle method; assay type: physicochemical; settings: buffer
[17] = Unbound drug level in ICR mouse brain incubated for 5 hrs by equilibrium dialysis method; assay type: ADME, tissue-based
[18] = Free maximum concentration of drug in ICR mouse brain; assay type: ADME, tissue-based
[19] = Cmax in Sprague-Dawley rat at 5 mg/kg, iv measured upto 25 hrs by LC-MS/MS analysis; assay type: ADME, organism-based; settings: in vivo
[20] = Mean residence time in Sprague-Dawley rat at 25 mg/kg, ip measured upto 25 hrs by LC-MS/MS analysis; assay type: ADME, organism-based; settings: in vivo
[21] = Bioavailability in Sprague-Dawley rat at 25 mg/kg, ip measured upto 25 hrs by LC-MS/MS analysis; assay type: ADME, organism-based; settings: in vivo
[22] = Cmax in Sprague-Dawley rat at 25 mg/kg, po measured upto 25 hrs by LC-MS/MS analysis; assay type: ADME, organism-based; settings: in vivo
[23] = Tmax in Sprague-Dawley rat at 25 mg/kg, po measured upto 25 hrs by LC-MS/MS analysis; assay type: ADME, organism-based; settings: in vivo
[24] = Half life in Sprague-Dawley rat at 25 mg/kg, po measured upto 25 hrs by LC-MS/MS analysis; assay type: ADME, organism-based; settings: in vivo
[25] = Mean residence time in Sprague-Dawley rat at 25 mg/kg, po measured upto 25 hrs by LC-MS/MS analysis; assay type: ADME, organism-based; settings: in vivo
[26] = Cmax in C57BL/6 mouse brain at 5 mg/kg, iv measured upto 25 hrs by LC-MS/MS analysis; assay type: ADME, organism-based
[27] = Cmax in C57BL/6 mouse spinal cord at 5 mg/kg, iv measured upto 25 hrs by LC-MS/MS analysis; assay type: ADME, organism-based
[28] = Tmax in C57BL/6 mouse brain at 5 mg/kg, iv measured upto 25 hrs by LC-MS/MS analysis; assay type: ADME, organism-based
[29] = Tmax in C57BL/6 mouse spinal cord at 5 mg/kg, iv measured upto 25 hrs by LC-MS/MS analysis; assay type: ADME, organism-based
Mus musculus [30] = test: Anti-inflammatory activity in complete Freund's adjuvant/MOG (35 to 55 residues)/pertussis toxin-induced experimental autoimmune encephalomyelitis C57BL/6 mouse model assessed as reduction in clinical scores at 30 to 60 mg/kg, ip qd administered 6 days post immunization and measured every 3 days for 28 days post immunization; assay type: functional, organism-based; settings: dose 30-60 mg/kg, time 22.0 day
Mus musculus [31] = test: Anti-inflammatory activity in complete Freund's adjuvant/MOG (35 to 55 residues)/pertussis toxin-induced experimental autoimmune encephalomyelitis C57BL/6 mouse model assessed as change in cumulative scores at 30 to 60 mg/kg, ip qd administered 6 days post immunization and measured every 3 days for 28 days post immunization; assay type: functional, organism-based; settings: dose 30-60 mg/kg, time 22.0 day
[32] = Toxicity in C57BL/6 mouse model of experimental autoimmune encephalomyelitis assessed as body weight loss at 30 to 60 mg/kg, ip administered 6 days post immunization and measured every 3 days for 28 days post immunization; assay type: organism-based; settings: in vivo, 528 h, dose 30-60 mg/kg, time 22 day
[33] = Toxicity in C57BL/6 mouse model of experimental autoimmune encephalomyelitis assessed as animal death at 30 to 60 mg/kg, ip administered 6 days post immunization and measured every 3 days for 28 days post immunization; assay type: organism-based; settings: in vivo, 144 h, dose 30-60 mg/kg, time 6 day
Mus musculus [34] = test: Anti-inflammatory activity in complete Freund's adjuvant/MOG (35 to 55 residues)/pertussis toxin-induced experimental autoimmune encephalomyelitis C57BL/6 mouse model assessed as reduction in TNF-alpha level at 30 to 60 mg/kg, ip qd administered 6 days post immunization and measured every 3 days for 28 days post immunization; assay type: functional, organism-based; settings: dose 30-60 mg/kg, time 22.0 day
Mus musculus [35] = test: Anti-inflammatory activity in complete Freund's adjuvant/MOG (35 to 55 residues)/pertussis toxin-induced experimental autoimmune encephalomyelitis C57BL/6 mouse model assessed as reduction in IL-6 level at 30 to 60 mg/kg, ip qd administered 6 days post immunization and measured every 3 days for 28 days post immunization; assay type: functional, organism-based; settings: dose 30-60 mg/kg, time 22.0 day
Mus musculus [36] = test: Anti-inflammatory activity in complete Freund's adjuvant/MOG (35 to 55 residues)/pertussis toxin-induced experimental autoimmune encephalomyelitis C57BL/6 mouse model assessed as appearance of normal myelin structure at 30 to 60 mg/kg, ip qd administered 6 days post immunization and measured every 3 days for 28 days post immunization by Luxol fast blue staining based bright field fluorescence microscopic analysis; assay type: functional, organism-based; settings: dose 30-60 mg/kg, time 22.0 day
Mus musculus [37] = test: Anti-inflammatory activity in complete Freund's adjuvant/MOG (35 to 55 residues)/pertussis toxin-induced experimental autoimmune encephalomyelitis C57BL/6 mouse model assessed as myelin density at 60 mg/kg, ip qd administered 6 days post immunization and measured every 3 days for 28 days post immunization by Luxol fast blue staining based bright field fluorescence microscopic analysis; assay type: functional, organism-based; settings: time 22.0 day
[38] = target: T1, Bromodomain-containing protein 4; test: Binding affinity to BRD4 BD2 (unknown origin) assessed as change in enthalpy by ITC method
[39] = target: T1, Bromodomain-containing protein 4; test: Binding affinity to BRD4 BD2 (unknown origin) assessed as change in gibbs free energy by ITC method

T2 sequence (Q15059 whole entry): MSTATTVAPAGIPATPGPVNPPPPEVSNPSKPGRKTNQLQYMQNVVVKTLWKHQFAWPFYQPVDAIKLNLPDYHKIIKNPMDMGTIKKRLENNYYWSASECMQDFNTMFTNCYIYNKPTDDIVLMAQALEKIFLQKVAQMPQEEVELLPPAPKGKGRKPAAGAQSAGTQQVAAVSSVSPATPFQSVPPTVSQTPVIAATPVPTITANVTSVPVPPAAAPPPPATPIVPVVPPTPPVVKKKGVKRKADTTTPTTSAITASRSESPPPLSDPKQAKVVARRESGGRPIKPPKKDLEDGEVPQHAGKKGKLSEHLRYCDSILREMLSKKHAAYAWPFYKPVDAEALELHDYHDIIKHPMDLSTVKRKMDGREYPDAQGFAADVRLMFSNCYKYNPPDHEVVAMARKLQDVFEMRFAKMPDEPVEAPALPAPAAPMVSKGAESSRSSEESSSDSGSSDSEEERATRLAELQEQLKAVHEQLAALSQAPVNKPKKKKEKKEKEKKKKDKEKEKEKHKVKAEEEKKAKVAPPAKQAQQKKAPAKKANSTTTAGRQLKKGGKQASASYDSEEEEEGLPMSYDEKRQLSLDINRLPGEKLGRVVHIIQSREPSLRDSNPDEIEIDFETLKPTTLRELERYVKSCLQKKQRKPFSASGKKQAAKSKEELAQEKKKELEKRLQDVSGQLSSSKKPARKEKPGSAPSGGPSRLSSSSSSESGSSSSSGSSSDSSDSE
T3 sequence (P25440 whole entry): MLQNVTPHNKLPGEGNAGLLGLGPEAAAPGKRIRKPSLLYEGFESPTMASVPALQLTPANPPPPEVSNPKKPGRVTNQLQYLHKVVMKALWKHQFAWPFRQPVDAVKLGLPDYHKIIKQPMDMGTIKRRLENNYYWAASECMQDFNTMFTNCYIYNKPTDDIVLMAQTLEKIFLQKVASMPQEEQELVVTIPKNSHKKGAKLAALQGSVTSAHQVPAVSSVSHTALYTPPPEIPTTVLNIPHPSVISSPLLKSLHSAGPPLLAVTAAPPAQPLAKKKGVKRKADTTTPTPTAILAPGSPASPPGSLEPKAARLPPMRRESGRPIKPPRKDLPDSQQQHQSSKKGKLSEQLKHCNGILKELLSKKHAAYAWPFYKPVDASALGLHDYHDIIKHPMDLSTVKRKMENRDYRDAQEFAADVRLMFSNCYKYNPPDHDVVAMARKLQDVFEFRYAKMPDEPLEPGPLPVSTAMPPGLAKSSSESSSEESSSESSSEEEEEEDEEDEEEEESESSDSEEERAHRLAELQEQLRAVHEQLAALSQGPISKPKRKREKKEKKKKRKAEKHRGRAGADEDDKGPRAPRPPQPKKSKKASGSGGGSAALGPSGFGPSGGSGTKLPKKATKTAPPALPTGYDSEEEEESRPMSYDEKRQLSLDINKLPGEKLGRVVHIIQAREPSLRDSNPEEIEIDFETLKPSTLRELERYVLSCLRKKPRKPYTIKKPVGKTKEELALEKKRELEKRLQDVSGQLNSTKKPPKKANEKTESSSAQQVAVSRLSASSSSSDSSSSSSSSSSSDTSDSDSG

For Cc1nn(CC2CC2)c(C)c1-c1cncc(-c2ccnc3nc[nH]c23)c1, which Kd [1] is on record?
The Kd was 230 nM.

And the Kd [2]?
Its Kd is 14000 nM.

What about the Kd [3] of the same compound?
Its Kd is 540 nM.

What about the Kd [4] of the same compound?
Its Kd is 21000 nM.

What about the TdeltaS [5] of the same compound?
The TdeltaS was 7.1 kcal/mol.

What about the deltaG [6] of the same compound?
The deltaG was -8.55 kcal/mol.

And the IC50 [7]?
The IC50 was 176 nM.

And the IC50 [8]?
The IC50 was 4840 nM.

What about the IC50 [9] of the same compound?
Its IC50 is 183 nM.

What about the IC50 [10] of the same compound?
Its IC50 is 1940 nM.

And the IC50 [11]?
The IC50 was 498 nM.

What about the IC50 [12] of the same compound?
Its IC50 is 2090 nM.

What about the IC50 [13] of the same compound?
The IC50 was 4750 nM.

And the Activity (Microglia)?
The Activity was “Active”.

What about the half-life [14] of the same compound?
The half-life was 3.7 h.

And the microsomal CLint [15]?
Its microsomal CLint is 3.2 µL/min/mg.

What about the logD [16] of the same compound?
The logD was 2.31.

And the fraction unbound at 5 h [17]?
Its fraction unbound at 5 h is 0.979.

What about the fCmax [18] of the same compound?
The fCmax was 170 nM.

What about the Cmax [19] of the same compound?
Its Cmax is 17.2 µM.

And the MRT [20]?
Its MRT is 1.74 h.

And the bioavailability [21]?
The bioavailability was 121%.

What about the Cmax [22] of the same compound?
The Cmax was 7.15 µM.

And the Tmax [23]?
The Tmax was 0.25 h.

And the half-life [24]?
Its half-life is 6.31 h.

What about the MRT [25] of the same compound?
The MRT was 8.93 h.

And the Cmax [26]?
Its Cmax is 7.91 µM.

What about the Cmax [27] of the same compound?
The Cmax was 3 µM.

And the Tmax [28]?
The Tmax was 1 h.

What about the Tmax [29] of the same compound?
The Tmax was 1 h.

What about the Activity (Mus musculus [30]) of the same compound?
The Activity was “Active”.

What about the Activity (Mus musculus [31]) of the same compound?
Its Activity is “Active”.

And the Activity [32]?
Its Activity is “Non-Toxic”.

What about the Activity [33] of the same compound?
Its Activity is “Non-Toxic”.

And the Activity (Mus musculus [34])?
The Activity was “Active”.

What about the Activity (Mus musculus [35]) of the same compound?
Its Activity is “Active”.

And the Activity (Mus musculus [36])?
The Activity was “Active”.

What about the Activity (Mus musculus [37]) of the same compound?
Its Activity is “Active”.

And the deltaH [38]?
The deltaH was -5.84 kcal/mol.

And the deltaG [39]?
The deltaG was -6.37 kcal/mol.
